The target in the test is Phospholipase D2 (Homo sapiens) + Phospholipase D2 (Homo sapiens) (UniProt O14939+O14939). Briefly: phospholipase D2 biochemical inhibition IC50 – assay 3B, library 32, dose response (AID 624000). The following applies: purified PLD2 enzyme activity.

The values below come from PubChem BioAssay AID624000 (Vanderbilt Specialized Chemistry Center, 2012).

Molecules are shown by their SMILES.

Phospholipase D2 (Homo sapiens) + Phospholipase D2 (Homo sapiens), sequence (O14939 whole entry, looked up): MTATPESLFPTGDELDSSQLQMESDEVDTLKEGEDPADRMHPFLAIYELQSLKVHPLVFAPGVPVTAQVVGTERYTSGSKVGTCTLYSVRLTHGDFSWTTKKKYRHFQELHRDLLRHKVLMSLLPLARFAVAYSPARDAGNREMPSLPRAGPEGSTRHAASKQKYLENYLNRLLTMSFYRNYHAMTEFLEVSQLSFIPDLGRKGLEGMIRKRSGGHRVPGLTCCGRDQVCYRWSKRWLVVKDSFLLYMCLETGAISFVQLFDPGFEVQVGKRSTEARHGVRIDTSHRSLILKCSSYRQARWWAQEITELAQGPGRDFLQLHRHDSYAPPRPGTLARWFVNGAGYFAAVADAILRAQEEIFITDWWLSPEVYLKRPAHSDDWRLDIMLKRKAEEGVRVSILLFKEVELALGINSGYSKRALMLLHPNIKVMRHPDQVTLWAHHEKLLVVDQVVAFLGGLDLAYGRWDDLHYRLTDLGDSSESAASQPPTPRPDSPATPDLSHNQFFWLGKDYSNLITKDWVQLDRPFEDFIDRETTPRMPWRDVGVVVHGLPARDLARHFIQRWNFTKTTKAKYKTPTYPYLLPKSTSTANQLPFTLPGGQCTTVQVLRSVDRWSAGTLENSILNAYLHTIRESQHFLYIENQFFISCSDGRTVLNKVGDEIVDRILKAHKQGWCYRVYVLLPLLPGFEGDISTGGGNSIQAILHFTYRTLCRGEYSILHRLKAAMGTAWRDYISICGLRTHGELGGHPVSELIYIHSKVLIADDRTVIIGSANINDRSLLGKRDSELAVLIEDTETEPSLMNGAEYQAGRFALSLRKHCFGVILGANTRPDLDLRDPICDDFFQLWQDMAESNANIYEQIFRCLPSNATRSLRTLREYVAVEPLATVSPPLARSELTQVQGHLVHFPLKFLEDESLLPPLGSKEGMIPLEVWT
Phospholipase D2 (Homo sapiens) + Phospholipase D2 (Homo sapiens), sequence (O14939 whole entry, looked up): as above

As for `COc1cc(C(=O)NCCN2CCC3(CC2)C(=O)NCN3c2cccc(F)c2)cc(OC)c1OC`, the IC50 was 1430 nM. With `C[C@@H](CN1CCC2(CC1)C(=O)NCN2c1cccc(F)c1)NC(=O)c1ccc(Br)cc1` the figure was 84 nM.

Broadly, the IC50 is the midpoint of a concentration-inhibition curve.
